In patent US10208037B2, “Toll-like receptor-7 and -8 modulatory 1H imidazoquinoline derived compounds” (The University of Kansas, priority 2011, dated 2019):

How the values were obtained:
Assay type in all cases: cell-based
TLR8 [1] = molecular target: T1, TLR8 (Homo sapiens, UniProt Q9NR97); test: TLR8 reporter gene assay, antagonism (CL075 as agonist); conditions: for IC50: agonist CL075 1 μg/mL, ND = not detected
T1 construct: expressed in transfected cells; host or cells: HEK293 (HEK-Blue-8 cells)
T1 sequence (Q9NR97 27-1041): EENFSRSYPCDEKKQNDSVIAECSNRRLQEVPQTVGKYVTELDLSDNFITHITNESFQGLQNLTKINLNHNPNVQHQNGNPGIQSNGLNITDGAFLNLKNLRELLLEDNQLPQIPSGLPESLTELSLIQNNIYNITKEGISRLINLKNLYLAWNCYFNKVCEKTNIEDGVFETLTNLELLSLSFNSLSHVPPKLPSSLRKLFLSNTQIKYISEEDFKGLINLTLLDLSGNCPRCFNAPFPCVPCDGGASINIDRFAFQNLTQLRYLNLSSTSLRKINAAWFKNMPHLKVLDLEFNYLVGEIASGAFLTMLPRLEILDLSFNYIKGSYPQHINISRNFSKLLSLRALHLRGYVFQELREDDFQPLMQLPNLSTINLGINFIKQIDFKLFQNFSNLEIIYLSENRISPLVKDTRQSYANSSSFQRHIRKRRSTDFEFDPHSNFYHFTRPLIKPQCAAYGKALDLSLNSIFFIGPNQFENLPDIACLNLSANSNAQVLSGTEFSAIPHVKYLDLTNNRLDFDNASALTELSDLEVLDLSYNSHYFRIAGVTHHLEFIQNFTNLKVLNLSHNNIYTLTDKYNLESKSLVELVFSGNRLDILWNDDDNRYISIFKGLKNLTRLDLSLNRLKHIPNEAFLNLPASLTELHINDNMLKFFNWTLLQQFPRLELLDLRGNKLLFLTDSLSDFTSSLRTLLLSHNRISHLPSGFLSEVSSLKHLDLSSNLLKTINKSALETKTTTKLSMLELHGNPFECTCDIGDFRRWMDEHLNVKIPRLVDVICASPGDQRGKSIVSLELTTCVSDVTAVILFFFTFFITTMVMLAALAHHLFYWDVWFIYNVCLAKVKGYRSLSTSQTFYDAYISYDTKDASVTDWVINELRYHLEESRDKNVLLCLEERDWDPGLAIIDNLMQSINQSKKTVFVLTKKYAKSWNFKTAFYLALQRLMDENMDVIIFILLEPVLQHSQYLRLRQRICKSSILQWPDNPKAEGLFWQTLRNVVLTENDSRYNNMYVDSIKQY
Excerpt: (§1) The induction of NF-κB was quantified using HEK-Blue-3, HEK-Blue-7 and HEK-Blue-8 cells as previously described by us.^8,24,51 HEK293 cells were stably transfected with human TLR3 (or human TLR7 or human TLR8), MD2, and secreted alkaline phosphatase (sAP), and were maintained in HEK-Blue™ Selection medium containing zeocin and normocin. Stable expression of secreted alkaline phosphatase (sAP) under control of NF-κB/AP-1 promoters is inducible by the TLR3 (or TLR7 or TLR8) agonists, and extracellular sAP in the supernatant is proportional to NF-κB induction. HEK-Blue cells were incubated at a density of ˜10^5 cells/ml in a volume of 80 μl/well, in 384-well, flat-bottomed, cell culture-treated microtiter plates until confluency was achieved, and subsequently graded concentrations of stimuli. sAP was assayed spectrophotometrically using an alkaline phosphatase-specific chromogen (present in HEK-detection medium as supplied by the vendor) at 620 nm.
(§2) Antagonism assays were done as described by us earlier^73 using the following agonists at a constant concentration: TLR3 Poly(I:C) (10 ng/mL); TLR7: gardiquimod (1 μg/mL); TLR8: CL075 (1 μg/mL) mixed with graded concentrations of the test compounds.

TLR7 [2] = molecular target: T2, TLR7 (Homo sapiens, UniProt Q9NYK1); test: TLR7 reporter gene assay, antagonism (gardiquimod as agonist)
T2 construct: expressed in transfected cells; host or cells: HEK293 (HEK-Blue-7 cells)
T2 sequence (Q9NYK1 27-1049): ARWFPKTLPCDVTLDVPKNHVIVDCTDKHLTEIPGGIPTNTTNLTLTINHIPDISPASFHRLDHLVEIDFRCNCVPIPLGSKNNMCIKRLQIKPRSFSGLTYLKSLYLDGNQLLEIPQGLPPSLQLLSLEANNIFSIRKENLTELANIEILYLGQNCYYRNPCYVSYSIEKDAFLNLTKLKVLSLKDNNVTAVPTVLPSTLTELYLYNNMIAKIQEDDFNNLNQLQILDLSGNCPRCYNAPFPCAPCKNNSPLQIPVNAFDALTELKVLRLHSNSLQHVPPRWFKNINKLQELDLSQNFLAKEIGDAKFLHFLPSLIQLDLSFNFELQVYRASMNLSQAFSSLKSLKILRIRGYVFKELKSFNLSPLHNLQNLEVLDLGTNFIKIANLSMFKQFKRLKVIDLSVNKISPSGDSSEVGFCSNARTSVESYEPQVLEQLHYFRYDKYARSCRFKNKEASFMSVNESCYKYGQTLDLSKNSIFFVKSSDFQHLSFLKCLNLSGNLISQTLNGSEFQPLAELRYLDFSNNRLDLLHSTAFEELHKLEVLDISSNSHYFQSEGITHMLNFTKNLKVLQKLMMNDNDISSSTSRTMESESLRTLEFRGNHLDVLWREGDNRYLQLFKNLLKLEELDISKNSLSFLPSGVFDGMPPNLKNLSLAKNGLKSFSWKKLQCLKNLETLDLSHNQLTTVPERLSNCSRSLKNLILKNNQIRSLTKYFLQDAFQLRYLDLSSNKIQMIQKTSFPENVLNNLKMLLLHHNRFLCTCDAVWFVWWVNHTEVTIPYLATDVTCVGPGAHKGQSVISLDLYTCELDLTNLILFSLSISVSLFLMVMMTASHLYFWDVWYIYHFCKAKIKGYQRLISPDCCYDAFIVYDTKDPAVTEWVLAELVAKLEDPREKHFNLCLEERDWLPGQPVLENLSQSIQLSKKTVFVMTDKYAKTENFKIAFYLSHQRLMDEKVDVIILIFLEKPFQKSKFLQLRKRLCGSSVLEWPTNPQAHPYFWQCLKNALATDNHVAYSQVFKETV
Excerpt: as §1, §2

[3] = test system: TLR7 and TLR8-induced cytokine and chemokine release; test: Inhibition of TLR7- and TLR8-mediated cytokine and chemokine production in human PBMCs; conditions: hPBMCs
Protocol: FIGS. 22A-[…] illustrate inhibition of TLR7-mediated (FIGS. 22A-22D) and TLR8-mediated (FIGS. 22E-[…]) proinflammatory cytokine production in human peripheral blood mononuclear cells by chloroquine or 47a. Proinflammatory cytokines were assayed by cytokine bead array methods after incubation of hPBMCs with graded concentrations of the test compound for 12 h in the presence of 10 μg/ml of either CL075 (TLR8 agonist) or gardiquimod (TLR7 agonist). FIGS. 23A-23D illustrate inhibition of TLR7-mediated (FIGS. 23A-23B) and TLR8-mediated (FIGS. 23C-3D) chemokine production in human peripheral blood mononuclear cells by chloroquine or 47a. Chemokines were assayed by cytokine bead array methods after incubation of hPBMCs with graded concentrations of the test compound for 12 h in the presence of 10 μg/ml of either CL075 (TLR8 agonist) or gardiquimod (TLR7 agonist). Aliquots (10^6 cells in 100 μL) of hPBMCs isolated from blood obtained from healthy human donors after informed consent by conventional Ficoll-Hypaque gradient centrifugation were stimulated for 12 h with graded concentrations of test compounds. The supernatant was isolated by centrifugation, diluted 1:20, and cytokines and chemokines were assayed in triplicate using analyte-specific cytokine/chemokine bead array assays as reported by us previously.^74

TLR8 [4] = molecular target: T1, TLR8; test: TLR8 reporter gene assay (NF-κB induction, HEK-Blue-8 cells), agonism
Excerpt: (§3) NF-κB induction: The induction of NF-κB was quantified using HEK-Blue-7 cells and HEK-Blue-8 cells as previously described by us.^8,24 HEK293 cells were stably transfected with human TLR7 (or human TLR8), MD2, and secreted alkaline phosphatase (sAP), and were maintained in HEK-Blue™ Selection medium containing zeocin and normocin. Stable expression of secreted alkaline phosphatase (sAP) under control of NF-κB/AP-1 promoters is inducible by the TLR7 (or TLR8) agonists, and extracellular sAP in the supernatant is proportional to NF-κB induction. HEK-Blue cells were incubated at a density of […] in a volume of 80 μL/well, in 384-well, flat-bottomed, cell culture-treated microtiter plates until confluency was achieved, and subsequently graded concentrations of stimuli. sAP was assayed spectrophotometrically using an alkaline phosphatase-specific chromogen (present in HEK-detection medium as supplied by the vendor) at 620 nm.
as §1

TLR7 [5] = molecular target: T2, TLR7; test: TLR7 reporter gene assay (NF-κB induction, HEK-Blue-7 cells), agonism; conditions: Table 1; ND = not detected; read-out: TLR7 Agonism
Excerpt: as §3, §1

Row | Compound | TLR8 antagonistic activity (in words) (TLR8 [1]) | IC50 (TLR8 [1]) [µM] | TLR7 antagonistic activity (in words) (TLR7 [2]) | IC50 (TLR7 [2]; agonist gardiquimod 1 μg/mL, ND = not detected) [µM] | TLR8-agonistic activity (in words) (TLR8 [4]) | EC50 (TLR7 [5]) [µM] | Inhibition of TNF-α and IL-1β production (in words) [3]
1 | Nc1nc2ccccc2c2c1nc(CCCCCCc1nc3c(N)nc4ccccc4c3n1Cc1ccccc1)n2Cc1ccccc1 [Compound 49a, 2,2′-(hexane-1,6-diyl)bis(1-benzyl-1H-imidazo[4,5-c]quinolin-4-amine)] | potent antagonistic activity | 10.9 | potent antagonistic activity | – | – | – | –
2 | CCN(CC)CCCC(C)Nc1ccnc2cc(Cl)ccc12 (stereo not shown) [Chloroquine, reference compound] | – | – | – | – | – | – | feeble inhibitor
3 | CCCCc1nc2c(N)nc3ccc(NC(=O)CCCCCCCCCCC(=O)Nc4ccc5nc(N)c6nc(CCCC)n(Cc7ccc(CN)cc7)c6c5c4)cc3c2n1Cc1ccc(CN)cc1 [Compound 55c, N^1,N^12-bis(4-amino-1-(4-(aminomethyl)benzyl)-2-butyl-1H-imidazo[4,5-c]quinolin-8-yl) dodecanediamide] | – | – | – | – | dual TLR7/TLR8 activity | 5.4 | –

Continued, in another order:

Row | TLR8 antagonistic activity (in words) (TLR8 [1]) | IC50 (TLR8 [1]) [µM] | TLR7 antagonistic activity (in words) (TLR7 [2]) | IC50 (TLR7 [2]; agonist gardiquimod 1 μg/mL, ND = not detected) [µM] | TLR8-agonistic activity (in words) (TLR8 [4]) | EC50 (TLR7 [5]) [µM] | Compound | Inhibition of TNF-α and IL-1β production (in words) [3]
4 | potent antagonistic activity | 15.6 | potent antagonistic activity | – | – | – | Nc1nc2ccccc2c2c1nc(CCCCc1nc3c(N)nc4ccccc4c3n1Cc1ccccc1)n2Cc1ccccc1 [Compound 47b, 2,2′-(butane-1,4-diyl)bis(1-benzyl-1H-imidazo[4,5-c]quinolin-4-amine)] | –
5 | potent antagonistic activity | 4.65 | potent antagonistic activity | 17.9 | – | – | Nc1nc2ccccc2c2c1nc(CCCCCCCCCCc1nc3c(N)nc4ccccc4c3n1Cc1ccccc1)n2Cc1ccccc1 [Compound 49b, 2,2′-(decane-1,10-diyl)bis(1-benzyl-1H-imidazo[4,5-c]quinolin-4-amine)] | –
